Activity calls are given as the source filed them. No rule for the calls is given here.
Tested on: CCRIS mutagenicity, Ames/micronucleus/aberration tests
Assay: CCRIS mutagenicity studies
[1] = Test System: AMES SALMONELLA TYPHIMURIUM, Strain/Indicator: TA98, Metabolic Activation: NONE, Method: STANDARD PLATE
[2] = Test System: AMES SALMONELLA TYPHIMURIUM, Strain/Indicator: TA98, Metabolic Activation: RAT, LIVER, S-9, AROCLOR 1254, Method: STANDARD PLATE
[3] = Test System: AMES SALMONELLA TYPHIMURIUM, Strain/Indicator: TA100, Metabolic Activation: NONE, Method: STANDARD PLATE
[4] = Test System: AMES SALMONELLA TYPHIMURIUM, Strain/Indicator: TA100, Metabolic Activation: RAT, LIVER, S-9, AROCLOR 1254, Method: STANDARD PLATE
[5] = Test System: AMES SALMONELLA TYPHIMURIUM, Strain/Indicator: TA1535, Metabolic Activation: NONE, Method: STANDARD PLATE
[6] = Test System: AMES SALMONELLA TYPHIMURIUM, Strain/Indicator: TA1535, Metabolic Activation: RAT, LIVER, S-9, AROCLOR 1254, Method: STANDARD PLATE
[7] = Test System: AMES SALMONELLA TYPHIMURIUM, Strain/Indicator: TA1537, Metabolic Activation: NONE, Method: STANDARD PLATE
[8] = Test System: AMES SALMONELLA TYPHIMURIUM, Strain/Indicator: TA1537, Metabolic Activation: RAT, LIVER, S-9, AROCLOR 1254, Method: STANDARD PLATE
[9] = Test System: MOUSE LYMPHOMA, Strain/Indicator: L5178Y (TK+/TK-), Metabolic Activation: NONE, Method: SUSPENSION/PLATE
[10] = Test System: AMES SALMONELLA TYPHIMURIUM, Strain/Indicator: TA100, Metabolic Activation: NONE, Method: PREINCUBATION
[11] = Test System: AMES SALMONELLA TYPHIMURIUM, Strain/Indicator: TA102, Metabolic Activation: NONE, Method: STANDARD PLATE
[12] = Test System: AMES SALMONELLA TYPHIMURIUM, Strain/Indicator: TA102, Metabolic Activation: RAT, LIVER, S-9, AROCLOR 1254, Method: STANDARD PLATE

SMILES: CC(C)=CC1C(C(=O)OCc2cccc(Oc3ccccc3)c2)C1(C)C (configuration not stated)
- mutagenic call (Test System: AMES SALMONELLA TYPHIMURIUM, Strain/Indicator: TA98): inactive; negative
- mutagenic call (Test System: AMES SALMONELLA TYPHIMURIUM, Strain/Indicator: TA98, Metabolic Activation: NONE): inactive; negative
- mutagenic call [1]: inactive; negative
- mutagenic call [2]: inactive; negative
- mutagenic call (Test System: AMES SALMONELLA TYPHIMURIUM, Strain/Indicator: TA100): active; positive
- mutagenic call (Test System: AMES SALMONELLA TYPHIMURIUM, Strain/Indicator: TA100, Metabolic Activation: NONE): active; positive
- mutagenic call [3]: inactive; negative
- mutagenic call [4]: inactive; negative
- mutagenic call [5]: inactive; negative
- mutagenic call [6]: inactive; negative
- mutagenic call [7]: inactive; negative
- mutagenic call [8]: inactive; negative
- mutagenic call (Test System: E. COLI, Strain/Indicator: WP2, Metabolic Activation: NONE, Method: STANDARD PLATE): inactive; negative
- mutagenic call (Test System: E. COLI, Strain/Indicator: WP2, Metabolic Activation: RAT, LIVER, S-9, AROCLOR 1254, Method: STANDARD PLATE): inactive; negative

SMILES: CCCON=O
- mutagenic call (Test System: AMES SALMONELLA TYPHIMURIUM, Strain/Indicator: TA98, Metabolic Activation: HAMSTER, LIVER, S-9, AROCLOR 1254, Method: STANDARD PLATE): inactive; negative
- mutagenic call [1]: inactive; negative
- mutagenic call [2]: inactive; negative
- mutagenic call (Test System: AMES SALMONELLA TYPHIMURIUM, Strain/Indicator: TA100, Metabolic Activation: HAMSTER, LIVER, S-9, AROCLOR 1254, Method: STANDARD PLATE): active; positive
- mutagenic call [3]: inactive; negative
- mutagenic call [4]: active; positive
- mutagenic call (Test System: AMES SALMONELLA TYPHIMURIUM, Strain/Indicator: TA1535, Metabolic Activation: HAMSTER, LIVER, S-9, AROCLOR 1254, Method: STANDARD PLATE): active; positive
- mutagenic call [5]: active; positive
- mutagenic call [6]: active; positive
- mutagenic call (Test System: AMES SALMONELLA TYPHIMURIUM, Strain/Indicator: TA1537, Metabolic Activation: HAMSTER, LIVER, S-9, AROCLOR 1254, Method: STANDARD PLATE): inactive; negative
- mutagenic call [7]: inactive; negative
- mutagenic call [8]: inactive; negative
- mutagenic call [9]: active; positive. reevaluation of results: inconclusive
- mutagenic call (Test System: MOUSE LYMPHOMA, Strain/Indicator: L5178Y (TK+/TK-), Metabolic Activation: RAT, LIVER, S-9, AROCLOR 1254, Method: SUSPENSION/PLATE): active; positive. reevaluation of results: positive
- mutagenic call (Test System: Mouse lymphoma, Strain/Indicator: L5178Y (tk+/tk-), Metabolic Activation: None, Method: Suspension/plate): active; positive
- mutagenic call (Test System: Mouse lymphoma, Strain/Indicator: L5178Y (tk+/tk-), Metabolic Activation: Rat, Liver, S-9, Aroclor 1254, Method: Suspension/plate): active; positive

SMILES: NNc1ccn([C@@H]2O[C@H](CO)[C@@H](O)[C@H]2O)c(=O)n1
- mutagenic call (Test System: CHINESE HAMSTER V-79, Strain/Indicator: V-79/6-THIOGUANINE, Metabolic Activation: NONE, Method: REPLATING): active; positive

SMILES: NCCc1c[nH]c2ccc(O)cc12
- mutagenic call [10]: inactive; negative

SMILES: CCOC(=O)C(=NNc1ccc(-c2ccc(NN=C(C(=O)OCC)C(=O)OCC)cc2)cc1)C(=O)OCC
- mutagenic call (Test System: AMES SALMONELLA TYPHIMURIUM, Strain/Indicator: TA98, Metabolic Activation: HAMSTER, LIVER, S-9, Method: PREINCUBATION (PRIVAL METHOD)): inactive; negative

SMILES: C[C@@]1(CO)[C@H](O)CC[C@@]2(C)[C@H]1CC[C@H]1C[C@@H]3C[C@@]12CC[C@]3(O)CO
- mutagenic call (End Point: In vitro chromosomal aberrations, Test System: Human (male) peripheral blood lymphocytes, Metabolic Activation: None): active; positive
- mutagenic call (End Point: In vitro micronucleus, Test System: Human (male) peripheral blood lymphocytes, Metabolic Activation: None): active; positive; increased trend in all groups; effect depended on age and genetic stat
- mutagenic call [11]: inactive; negative
- mutagenic call [12]: inactive; negative
- mutagenic call [9]: active; positive
- mutagenic call (Test System: UDS RODENT HEPATOCYTES, Strain/Indicator: THY INCORP (NON-S-PHASE), Metabolic Activation: NONE, Method: AUTORADIOGRAPHY): inactive; negative

SMILES: c1ccc(N=NNc2ccccc2)cc1
- mutagenic call (End Point: IN VIVO MICRONUCLEUS, Test System: BONE MARROW, Species: MOUSE, Strain/Sex: B6C3F1/MALE, Route: GAVAGE): active; positive
- mutagenic call (Test System: AMES SALMONELLA TYPHIMURIUM, Strain/Indicator: TA98, Metabolic Activation: HAMSTER, LIVER, S-9, AROCLOR 1254 (10%), Method: PREINCUBATION): active; positive
- mutagenic call (Test System: AMES SALMONELLA TYPHIMURIUM, Strain/Indicator: TA98, Metabolic Activation: NONE, Method: PREINCUBATION): inactive; negative
- mutagenic call (Test System: AMES SALMONELLA TYPHIMURIUM, Strain/Indicator: TA98, Metabolic Activation: RAT, LIVER, S-9, AROCLOR 1254 (10%), Method: PREINCUBATION): active; positive
- mutagenic call (Test System: AMES SALMONELLA TYPHIMURIUM, Strain/Indicator: TA100, Metabolic Activation: HAMSTER, LIVER, S-9, AROCLOR 1254 (10%), Method: PREINCUBATION): active; positive
- mutagenic call [10]: inactive; negative
- mutagenic call (Test System: AMES SALMONELLA TYPHIMURIUM, Strain/Indicator: TA100, Metabolic Activation: RAT, LIVER, S-9, AROCLOR 1254 (10%), Method: PREINCUBATION): active; positive
- mutagenic call (Test System: AMES SALMONELLA TYPHIMURIUM, Strain/Indicator: TA1535, Metabolic Activation: HAMSTER, LIVER, S-9, AROCLOR 1254 (10%), Method: PREINCUBATION): inactive; negative
- mutagenic call (Test System: AMES SALMONELLA TYPHIMURIUM, Strain/Indicator: TA1535, Metabolic Activation: NONE, Method: PREINCUBATION): inactive; negative
- mutagenic call (Test System: AMES SALMONELLA TYPHIMURIUM, Strain/Indicator: TA1535, Metabolic Activation: RAT, LIVER, S-9, AROCLOR 1254 (10%), Method: PREINCUBATION): inactive; negative
- mutagenic call (Test System: AMES SALMONELLA TYPHIMURIUM, Strain/Indicator: TA1537, Metabolic Activation: HAMSTER, LIVER, S-9, AROCLOR 1254 (10%), Method: PREINCUBATION): active; positive
- mutagenic call (Test System: AMES SALMONELLA TYPHIMURIUM, Strain/Indicator: TA1537, Metabolic Activation: NONE, Method: PREINCUBATION): inactive; negative
- mutagenic call (Test System: AMES SALMONELLA TYPHIMURIUM, Strain/Indicator: TA1537, Metabolic Activation: RAT, LIVER, S-9, AROCLOR 1254 (10%), Method: PREINCUBATION): active; positive

SMILES: Clc1cncc(Cl)c1
- mutagenic call (Test System: AMES SALMONELLA TYPHIMURIUM, Strain/Indicator: TA97, Metabolic Activation: NONE, Method: STANDARD PLATE): inactive; negative
- mutagenic call (Test System: AMES SALMONELLA TYPHIMURIUM, Strain/Indicator: TA97, Metabolic Activation: RAT, LIVER, S-9, AROCLOR 1254, Method: STANDARD PLATE): inactive; negative
- mutagenic call [1]: inactive; negative
- mutagenic call [2]: inactive; negative
- mutagenic call [3]: inactive; negative
- mutagenic call [4]: inactive; negative
- mutagenic call [11]: inactive; negative
- mutagenic call [12]: inactive; negative

SMILES: [Cl-].[Cl-].[Cl-].[Cr+3].c1cnc2c(c1)ccc1cccnc12.c1cnc2c(c1)ccc1cccnc12
- mutagenic call [3]: active; positive

SMILES: COc1cccc2c1C(=O)c1c(O)c3c(c(O)c1C2=O)C[C@@](O)(C(=O)CO)C[C@@H]3O[C@H]1C[C@H](N)C[C@H](C)O1
- mutagenic call (Test System: AMES SALMONELLA TYPHIMURIUM, Strain/Indicator: GW257, Metabolic Activation: NONE, Method: STANDARD PLATE): active; positive
- mutagenic call [1]: active; positive
- mutagenic call [3]: active; positive
- mutagenic call (Test System: AMES SALMONELLA TYPHIMURIUM, Strain/Indicator: TA1538, Metabolic Activation: NONE, Method: STANDARD PLATE): active; positive
- mutagenic call (Test System: CHINESE HAMSTER V-79, Strain/Indicator: V-79/6-THIOGUANINE, Metabolic Activation: NONE, Method: SUSPENSION/PLATE): active; positive
- mutagenic call (Test System: CHINESE HAMSTER V-79, Strain/Indicator: V-79/6-THIOGUANINE, Metabolic Activation: RAT, LIVER, HOMOGENATE, Method: SUSPENSION/PLATE): inactive; negative

From PubChem BioAssay AID1259407 (Chemical Carcinogenesis Research Information System (CCRIS), 2018)
